{"source": "patent US20120053130A1", "about": "“COMPOSITION FOR ENHANCING ABSORPTION OF A DRUG AND METHOD” (Bristol-Myers Squibb Company, priority 2010, published 2012)", "key": {"[1]": {"assay": "DDAVP permeation across Calu-3 cells on Transwell filters", "type": "in vitro ADME, human", "conditions": "human", "excerpt": "(§1) Papp values are labeled on top of the bars.\n(§2) Inclusion of LPC further boosted the transport of DDAVP."}, "[2]": {"test_system": "Calu-3 cells", "assay": "Alamar Blue acute cytotoxicity assay", "type": "cell-based, human", "excerpt": "FIG. 2 depicts an Alamar Blue Assay—Black bar indicates the % of the cell survival after 2 hrs treatment of LPC at 0-0.25%; gray bar indicates the combination of LPC with 0.5% of C971P.\nThis assay is based on the ability of live cells to enzymatically reduce Alamar blue dye which indicates the relative percentage of cells that survive the exposure to the various treatments. Calu-3 cells exposed to buffer for 2 hr were used as the positive control with 100% cell survival."}, "[3]": {"assay": "Intra-nasal DADLE absorption in rabbits", "type": "in vivo, rabbit", "conditions": "DADLE 1 mg/kg intra-nasal via syringe microsprayer", "excerpt": "Intra-nasal delivery of the model pentapepdide DADLE in water, C971P, LPC or C971P/LPC formulation was studied in rabbits. […] The C971P/LPC formulation enhanced DADLE absorption by >50% compared to LPC alone."}, "[4]": {"test_system": "Calu-3 cells", "assay": "TEER measurement (cell integrity and reversibility)", "type": "cell-based, human", "conditions": "for TEER after 2 hr (% initial): Phosphatidylcholine (Lecithin) Treatment", "excerpt": "The asterisk (delete scatters with) (*) represent (delete marker present) those samples where TEER recovered to the original level within 12 hrs after washout of the treatment.\nTransepithelial electrical resistance (TEER) measures the integrity of the epithelial barrier. […] Return of the TEER values to initial levels indicates recovery to baseline barrier properties. TEER measurements were done in confluent highly resistant Calu-3 cells cultured in Transwell filters with handheld STX-2 electrodes connected to EVOM Voltohmmeter. […] After the removal of apical treatment, TEER recovered to the original values."}, "[5]": {"test_system": "Calu-3 cells", "assay": "DDAVP permeation across Calu-3 cells on Transwell filters", "type": "in vitro ADME, human", "conditions": "for DDAVP Permeability: Phosphatidylcholine (Lecithin) Treatment", "excerpt": "as §1, §2"}}}
{"molecule": "NC(=O)CC[C@@H]1NC(=O)[C@H](Cc2ccccc2)NC(=O)[C@H](Cc2ccc(O)cc2)NC(=O)CCSSC[C@@H](C(=O)N2CCC[C@H]2C(=O)N[C@H](CCCN=C(N)N)C(=O)NCC(N)=O)NC(=O)[C@H](CC(N)=O)NC1=O", "note": "[DDAVP, 1 deamino-8-D-arginin-vasopressin]", "values": [{"measurement": "Papp A→B", "setting": "[1]", "value": "0.04 ± 0.003", "unit": "×10⁻⁶ cm/s"}]}
{"molecule": "CCCCCCCCCC(=O)[O-].[Na+]", "note": "[sodium caprate]", "values": [{"measurement": "effect of Carbopol 971P on acute cytotoxicity of the enhancer", "setting": "[2]; Alamar Blue cytotoxicity assay in Calu-3 cells", "value": "failed to reduce the acute cytotoxicity"}]}
{"molecule": "L-α-lysophosphatidylcholine [LPC]", "values": [{"measurement": "DADLE exposure relative to water control", "setting": "[3]", "value": 2.4, "unit": "times"}, {"measurement": "change in TEER on treatment", "setting": "[4]; 2 hours of treatment", "value": "dramatic drop in TEER"}, {"measurement": "cell survival", "setting": "[2]; 0.05% LPC, 2 hr, without or with 0.5% C971P", "value": "About 82%"}, {"measurement": "cell survival", "setting": "[2]; 0.1% LPC, 2 hr, without or with 0.5% C971P", "value": 41, "unit": "%"}, {"measurement": "cell survival, result in words", "setting": "[2]; LPC 0-0.25%, 2 hr, without or with 0.5% C971P", "value": "dose-dependent reduction in survival"}]}
{"molecule": "Phosphatidylcholine [Phosphatidylcholine (Lecithin)]", "values": [{"measurement": "TEER after 2 hr (% initial)", "setting": "[4]; 1 mM", "value": "No change"}, {"measurement": "TEER after 2 hr (% initial)", "setting": "[4]; 2 mM", "value": "No change"}, {"measurement": "TEER after 2 hr (% initial)", "setting": "[4]; 5 mM", "value": "No change"}, {"measurement": "DDAVP permeability enhancement and TEER drop, result in words", "setting": "[5]; Calu-3 cells, TEER 2 hr after exposure", "value": "failed to show any measurable enhancement or TEER drop"}, {"measurement": "DDAVP Permeability", "setting": "[5]; 1 mM", "value": "0.045 ± 0.003", "unit": "×10⁻⁶ cm/s"}, {"measurement": "DDAVP Permeability", "setting": "[5]; 2 mM", "value": "0.044 ± 0.003", "unit": "×10⁻⁶ cm/s"}, {"measurement": "DDAVP Permeability", "setting": "[5]; 5 mM", "value": "0.044 ± 0.004", "unit": "×10⁻⁶ cm/s"}]}
